Assay results from PubChem BioAssay (NCI).
Values joined by “and” are separate entries in the source; they are usually repeats but may differ in a detail not shown here. Identical values can stand only once.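 Grown in 96-well plates, cells were treated for 48 hours with each compound at five concentrations. Insufficient inhibition: endpoint recorded as highest concentration tested. At the GI50, growth is halved. The concentration for full growth arrest is given as TGI.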

What was measured:
Experiment in all cases: inhibition of tumour cell growth, NCI panel, 48 h
[1] = system: M14 melanoma
[2] = system: SF-295 CNS
[3] = system: SR leukemia
[4] = system: OVCAR-4 ovarian
[5] = system: RPMI-8226 leukemia
[6] = system: NCI-H522 lung
[7] = system: SNB-19 CNS
[8] = system: HCT-15 colon

Row | Structure (SMILES) | GI50 [1] | TGI [1] | GI50 [2] | TGI [2] | GI50 [3] | TGI [3] | GI50 [4] | TGI [4] | GI50 [5] | TGI [5] | GI50 [6] | TGI [6] | GI50 [7] | TGI [7] | GI50 [8] | TGI [8]
1 | CC1=C(Nc2ccc(N3CCN(C)CC3)cc2)C(=O)c2cncnc2C1=O | 14.9 µM | 32.2 µM | 11.9 µM | 28.1 µM | 3.22 µM | > 100 µM | 1.09 µM | 2.28 µM | 3.26 µM | 11.7 µM | 16.1 µM | 39.3 µM | 17.2 µM | 37.2 µM | 12.9 µM | 41 µM
2 | CCc1nc(N)nc(N)c1-c1ccc(N2CCNCC2)cc1 | – | > 83.9 µM | – | > 100 µM | – | > 66.9 µM | – | > 100 µM | – | > 90.5 µM | – | > 100 µM | – | > 93.3 µM | – | > 100 µM
3 | CSc1ccc2c(c1)C(N1CCN(C)CC1)Cc1ccccc1S2 (stereo unspecified) | – | 3.77 µM and 3.53 µM | 1.84 µM | 15.2 µM and 3.7 µM | 1.66 µM | 5.21 µM and 3.83 µM | 2.6 µM | 9.66 µM and 9.89 µM | – | 4.12 µM and 4.58 µM | 1.76 µM | 10.2 µM and 3.29 µM | 2.36 µM | 28.5 µM and 6.13 µM | 2.83 µM | 16.4 µM and 7.41 µM
4 | O=C(COc1cccc(/C=C2\CSc3ccccc3C2=O)c1)Nc1nccs1 | 1.88 µM | 4.06 µM | 2.09 µM | 3.59 µM | 0.557 µM | 2.44 µM | 3.94 µM | 19.4 µM | 0.653 µM | 2.79 µM | 1.55 µM | 3.27 µM | 6.48 µM | 19.6 µM | 2.17 µM | 5 µM
5 | C#CCOc1ccc2ncnc(Nc3ccc(NC(=O)C=C)cc3)c2c1 | 34.4 µM | > 100 µM | > 100 µM | > 100 µM | 3.47 µM | 57.4 µM | > 100 µM | > 100 µM | 2.63 µM | 7.44 µM | 11.8 µM | 39.7 µM | > 100 µM | > 100 µM | 19.2 µM | > 100 µM
6 | Cn1ncc(Cl)c1-c1cc(C(=O)N[C@H](CN)Cc2ccc(F)c(F)c2)oc1Cl | 1.59 µM and 1.49 µM | 5.7 µM and 3.71 µM | 0.145 µM and 0.111 µM | 5.04 µM and 3.27 µM | – | 2.74 µM and 4.36 µM | 4.06 µM and 5.4 µM | 17.2 µM and > 10 µM | 2.05 µM and 2.62 µM | 7.96 µM and > 7.98 µM | 4.82 µM and 2.04 µM | 16 µM and > 8.82 µM | 0.486 µM and 0.252 µM | 12.9 µM and > 10 µM | 1.16 µM and 0.662 µM | 13.8 µM and > 10 µM
7 | C=C1C(=O)OC2/C=C(/C)C(OC(C)=O)C/C=C(\C)C(OC(=O)C3(C)OC3C)C(O)C12 (stereo unspecified) | – | > 100 µM | – | > 100 µM | – | > 100 µM | – | > 100 µM | – | > 100 µM | – | 28.6 µM | – | > 100 µM | – | > 100 µM
8 | COC(=O)c1ccc(NC(=O)Oc2ccc(N(CCCl)CCCl)cc2)cc1 | 5.97 µM | > 100 µM | 1.38 µM | 11.4 µM | 0.394 µM | > 100 µM | 13.8 µM | 38.2 µM | 6.5 µM | > 100 µM | 3.47 µM | 16.3 µM | 5.17 µM | > 100 µM | 11.2 µM | > 100 µM
9 | N=c1c2c(=N)n3c(nc2nc2n1-c1ccccc1Sc1ccccc1-2)sc1cc(Cl)ccc13 | 4.11 µM | > 100 µM | 1.82 µM | 9.52 µM | 2.77 µM | > 100 µM | 2.78 µM | > 100 µM | 0.988 µM | > 100 µM | 1.2 µM | 6.99 µM | 2.88 µM | 68.7 µM | 2.14 µM | > 100 µM
10 | O=[N+]([O-])c1cccc(C2CC(c3ccccc3)=Nc3ccccc3S2)c1 (stereo unspecified) | 19.2 µM | 44.6 µM | 25.1 µM | 77.7 µM | 3.4 µM | > 100 µM | 11.7 µM | 26.4 µM | 3.41 µM | 17.3 µM | 10.8 µM | 23.5 µM | 15.4 µM | 44.8 µM | 4.84 µM | 18.7 µM
11 | COc1cc2cc(Oc3ccc(NC(=O)Nc4ccc(Cl)c(Cl)c4)cc3)c(C)nc2cc1OC | 2.56 µM | 10.5 µM | 1.96 µM | 6.08 µM | 3.1 µM | 10.3 µM | 2.67 µM | 8.3 µM | 1.62 µM | 5.73 µM | 1.74 µM | 8.43 µM | 4.26 µM | 24 µM | 3.56 µM | > 100 µM
12 | COC(=O)C=Cc1ccc2nncnc2c1 (mixture of isomers) | – | 42.6 µM | – | 64.3 µM | – | > 100 µM | – | > 100 µM | – | > 100 µM | – | > 100 µM | – | > 100 µM | – | > 100 µM
13 | CC[n+]1c(/C=C/C=C2\N(C)c3ccccc3C2(C)C)sc2ccccc21 | 4.03 µM | 8.33 µM | 3.88 µM | 7.55 µM | 3.32 µM | 9.32 µM | 3.85 µM | 7.19 µM | 2.99 µM | 10.1 µM | 3.8 µM | 9.03 µM | 4.1 µM | 7.8 µM | 4.54 µM | 9.67 µM
